The values that follow come from US9221838B2, “Inhibitors of AKT activity” (ALMAC DISCOVERY LIMITED, priority 2009, dated 2015).

Holding throughout (assay type): biochemical
The target of one assay is T1, AKT2 (Homo sapiens, UniProt P31751).
T1 construct: purchased SignalChem
Kind of assay: AKT Kinase Assay (IMAP fluorescent polarisation) vs AKT2. On the procedure: (§1) Testing of the compounds was performed using an AKT Kinase Assay:
(§2) Activated AKT isoforms 1, 2 and 3 were assayed utilising a 5′ FAM Crosstide (Seq. GRPRTSSFAEG-OH)(SEO ID NO: 1). The extent of kinase phosphorylation was determined by fluorescent polarisation using IMAP progressive binding reagent, which introduces binding beads which allow the reagent to specifically bind to phosphate residues via covalent co-ordination complex bonds.
(§3) iMAP binding solution stops Crosstide/kinase interaction and specifically binds phosphorylated substrates. The degree of phosphorylation is determined by fluorescent polarisation (excitation 485 nm; emission 528 nm) or the reduction in speed of rotation of the excited substrate.
(§4) The following materials were used in the assay: • a) Activated AKT isoforms (SignalChem.) dissolved in Complete Reaction buffer at a pre-determined concentration selected so that the assay was carried out in the linear range. • b) AKT substrate peptide: FAM Crosstide (R7110) Molecular Devices, diluted in complete reaction buffer. • c) iMAP Progressive Screening Express Kit (R8127) Molecular Devices • d) Complete Reaction Buffer containing 0.1% BSA, 10 mM Tris-HCl, 10 mM MgCl2, 0.05% NaN3 and 0.01% phosphate free BSA, 1 mM DTT • e) Progressive Binding Solution containing 75% Buffer A, 25% Buffer B and low volume Binding Reagent which contains the binding entity for the assay • f) ATP diluted in complete reaction buffer • g) Black polystyrene 384 well assay plates (Nunc). • h) Biotek Synergy 4 Hybrid Plate reader.
(§5) 5 μl of test compound was dissolved in DMSO (Sigma Aldrich) and serially diluted in complete reaction buffer to give a fourteen point half log dose response and plated into 384 well black plates. The compound was incubated at room temperature with activated AKT isoform ([…] ) at the pre-determined concentration, for 45 minutes.
(§6) 2.5 μl of ATP solution mixed with 2.5 μl of AKT substrate peptide (FAM Crosstide (R7110) Molecular Devices) were dispensed into each well and the plate centrifuged at 1000 rpm for 20 seconds to ensure homogenous mixing of reagents. The reaction mix was incubated in the dark for one hour at room temperature.
(§7) The kinase reaction was stopped by the addition of Progressive Binding Solution and the mixture allowed to equilibrate for one hour in the dark, at room temperature.
(§8) The fluorescent polarisation generated in each well was determined using a […] Synergy 4 Hybrid plate reader. In brief, each reaction solution was excited at 485 nm with the emission measured at 528 nm in both the parallel and perpendicular pathway.
(§9) The polarisation value generated in each well was calculated by Gen5 software (Biotek) and the % inhibition of kinase activity compared to vehicle control was calculated via GraphPad Prism. IC50 values for each compound were calculated by non-linear regression analysis using Prism software.
(§10) All plates were internally controlled by two methods. Firstly, by calculating the signal:noise ratio; based on kinase polarisation without inhibitor and polarisation generated by complete reaction buffer in the absence of activated kinase. Secondly by determining IC50 values generated by known inhibitors of the AKT isoforms.

The next assay deals with T2, AKT3 (Homo sapiens, UniProt Q9Y243).
T2 construct: purchased SignalChem
Put plainly: AKT Kinase Assay (IMAP fluorescent polarisation) vs AKT3. On the procedure:
as §1, §2, §3, §4, §5, §6, §7, §8, §9, §10

The target of another assay is T3, AKT1 (Homo sapiens, UniProt P31749).
T3 construct: purchased SignalChem
Put plainly: AKT Kinase Assay (IMAP fluorescent polarisation) vs AKT1. On the procedure: as §1, §2, §3, §4, §5, §6, §7, §8, §9, §10

T1 sequence (P31751 whole entry): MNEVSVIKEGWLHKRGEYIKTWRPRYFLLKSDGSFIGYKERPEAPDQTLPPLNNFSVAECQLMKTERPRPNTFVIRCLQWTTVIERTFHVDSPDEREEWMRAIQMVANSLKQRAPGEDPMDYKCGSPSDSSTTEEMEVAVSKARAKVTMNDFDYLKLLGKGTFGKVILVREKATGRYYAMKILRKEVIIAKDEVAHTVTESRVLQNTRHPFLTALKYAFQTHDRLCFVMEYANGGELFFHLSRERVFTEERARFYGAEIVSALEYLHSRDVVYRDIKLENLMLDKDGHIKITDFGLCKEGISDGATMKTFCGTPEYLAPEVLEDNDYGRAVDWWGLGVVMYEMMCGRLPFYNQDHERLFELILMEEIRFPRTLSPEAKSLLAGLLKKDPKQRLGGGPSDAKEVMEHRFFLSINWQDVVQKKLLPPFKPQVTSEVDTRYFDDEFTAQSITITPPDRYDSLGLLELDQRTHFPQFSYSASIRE
T3 sequence (P31749 whole entry): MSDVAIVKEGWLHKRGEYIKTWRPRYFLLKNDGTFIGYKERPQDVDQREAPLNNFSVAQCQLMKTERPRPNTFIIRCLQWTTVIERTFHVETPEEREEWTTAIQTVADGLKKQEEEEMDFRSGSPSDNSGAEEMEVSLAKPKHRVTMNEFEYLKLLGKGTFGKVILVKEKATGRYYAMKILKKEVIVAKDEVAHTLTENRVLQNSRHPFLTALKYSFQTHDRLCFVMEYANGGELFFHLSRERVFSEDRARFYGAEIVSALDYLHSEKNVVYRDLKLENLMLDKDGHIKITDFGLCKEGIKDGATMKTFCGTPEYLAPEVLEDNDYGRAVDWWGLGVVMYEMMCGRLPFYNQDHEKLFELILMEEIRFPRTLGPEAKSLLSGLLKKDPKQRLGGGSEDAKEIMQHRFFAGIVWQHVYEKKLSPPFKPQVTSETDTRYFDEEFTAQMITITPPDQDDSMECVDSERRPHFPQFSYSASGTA
T2 sequence (Q9Y243 whole entry): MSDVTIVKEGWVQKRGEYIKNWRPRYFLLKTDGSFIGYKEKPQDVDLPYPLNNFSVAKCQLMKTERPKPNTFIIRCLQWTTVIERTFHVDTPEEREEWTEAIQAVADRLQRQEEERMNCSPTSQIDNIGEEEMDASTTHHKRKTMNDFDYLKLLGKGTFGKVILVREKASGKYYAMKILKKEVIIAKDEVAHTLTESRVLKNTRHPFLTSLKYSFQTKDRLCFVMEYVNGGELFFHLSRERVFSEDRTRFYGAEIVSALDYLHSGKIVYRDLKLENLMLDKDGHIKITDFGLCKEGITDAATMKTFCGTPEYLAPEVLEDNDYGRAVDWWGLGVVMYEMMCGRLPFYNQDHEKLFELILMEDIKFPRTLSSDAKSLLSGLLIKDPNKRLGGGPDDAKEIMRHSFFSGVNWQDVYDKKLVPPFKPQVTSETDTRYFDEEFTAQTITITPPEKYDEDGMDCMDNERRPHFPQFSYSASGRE

As for `NC1(c2ccc(-c3nc4c(cc3-c3ccccc3)N(c3cccnc3)CCO4)cc2)CCC1` [Example 91, 1-(4-(7-phenyl-1-(pyridin-3-yl)-2,3-dihydro-1H-pyrido[2,3-b][1,4]oxazin-6-yl)phenyl)cyclobutanamine], the IC50 is no more than 100 nM on AKT2, 1000 to 10000 nM at AKT3 and 100 to 1000 nM at AKT1.

Take `COCC1Oc2nc(-c3ccc(C4(N)CCC4)cc3)c(-c3ccccc3)cc2N(CC#N)C1=O` (stereo not drawn) [Example 95, 2-(6-(4-(1-aminocyclobutyl)phenyl)-3-(methoxymethyl)-2-oxo-7-phenyl-2,3-dihydro-1H-pyrido[2,3-b][1,4]oxazin-1-yl)acetonitrile]: the values for the half-inhibitory concentration (IC50) on AKT2, at AKT3 and at AKT1 were 100 to 1000 nM, greater than 10000 nM and 100 to 1000 nM, respectively.

Consider `CC(C)Cc1nnc2n1-c1cc(-c3ccccc3)c(-c3ccc(C4(N)CCC4)cc3)nc1OC2` [Example 115, 1-(4-(1-isobutyl-8-phenyl-4H-pyrido[2,3-b][1,2,4]triazolo[4,3-d][1,4]oxazin-7-yl)phenyl)cyclobutanamine], for which the values for the IC50 at AKT2, at AKT3 and on AKT1 were 100 to 1000 nM, 1000 to 10000 nM and 100 to 1000 nM, respectively.

As to `NC1(c2ccc(-c3nc4c(cc3-c3ccccc3)N(C3CCCC3)C(=O)CO4)cc2)CCC1` [Example 58, 6-(4-(1-aminocyclobutyl)phenyl)-1-cyclopentyl-7-phenyl-1H-pyrido[2,3-b][1,4]oxazin-2(3H)-one], the IC50 fell in the range of 100 to 1000 nM on AKT2, 1000 to 10000 nM on AKT3 and 1000 to 10000 nM at AKT1.

Consider `NC1(c2ccc(-c3nc4c(cc3-c3ccccc3)-n3c(CO)nnc3CO4)cc2)CCC1` [Example 107], for which the IC50 on AKT2 was 1000 to 10000 nM; at AKT3 it was 1000 to 10000 nM; on AKT1, no more than 100 nM.

Turning to `N#CCN1c2cc(-c3ccccc3)c(-c3ccc(C4(N)CCC4)cc3)nc2OCS1(=O)=O` [Example 76, 2-(6-(4-(1-aminocyclobutyl)phenyl)-2,2-dioxido-7-phenyl-1H-pyrido[3,2-e][1,3,4]oxathiazin-1-yl)acetonitrile], the IC50 on AKT2 is no more than 100 nM; at AKT3 it was greater than 10000 nM; at AKT1, 100 to 1000 nM.

With `NC1(c2ccc(-c3nc4c(cc3-c3ccccc3)-n3c(nnc3-c3ccccc3)CO4)cc2)CCC1` [Example 129, 1-(4-(1,8-diphenyl-4H-pyrido[2,3-b][1,2,4]triazolo[4,3-d][1,4]oxazin-7-yl)phenyl)cyclobutanamine], the figures for the IC50 on AKT2, on AKT3 and at AKT1 were 1000 to 10000 nM, 1000 to 10000 nM and 100 to 1000 nM, respectively.

Turning to `NC1(c2ccc(-c3nc4c(cc3-c3ccccc3)C(=O)CCCC4)cc2)CCC1` [Example 20, 2-(4-(1-aminocyclobutyl)phenyl)-3-phenyl-6,7,8,9-tetrahydro-5H-cyclohepta[b]pyridin-5-one], the IC50 on AKT2 was 1000 to 10000 nM; at AKT3, greater than 10000 nM; on AKT1, 100 to 1000 nM.

Take `Cc1nnc2n1-c1cc(-c3ccccc3)c(-c3ccc(C4(N)CCC4)cc3)nc1OC2` [Example 63, 1-(4-(1-methyl-8-phenyl-4H-pyrido[2,3-b][1,2,4]triazolo[4,3-d][1,4]oxazin-7-yl)phenyl)cyclobutanamine]: the IC50 on AKT2 was 1000 to 10000 nM; on AKT3, greater than 10000 nM; at AKT1, 100 to 1000 nM.

Consider `CN1C(=O)NCc2nc(-c3ccc(C4(N)CCC4)cc3)c(-c3ccccc3)cc21` [Example 108, 6-(4-(1-aminocyclobutyl)phenyl)-1-methyl-7-phenyl-3,4-dihydropyrido[3,2-d]pyrimidin-2(1H)-one], for which the values for the IC50 at AKT2, at AKT3 and at AKT1 were 100 to 1000 nM, 1000 to 10000 nM and 100 to 1000 nM, respectively.

With `CO/N=C1\CCCc2nc(-c3ccc(C4(N)CCC4)cc3)c(-c3ccccc3)cc21` [Example 3, 2-(4-(1-aminocyclobutyl)phenyl)-3-phenyl-7,8-dihydroquinolin-5(6H)-one O-methyl oxime], the IC50 at AKT2 was greater than 10000 nM; on AKT3, greater than 10000 nM; on AKT1, 1000 to 10000 nM.

Consider `CS(=O)(=O)c1[nH]nc2c1CCc1nc(-c3ccc(C4(N)CCC4)cc3)c(-c3ccccc3)cc1-2` [Example 10, 1-(4-(3-(methylsulfonyl)-8-phenyl-4,5-dihydro-2H-pyrazolo[3,4-f]quinolin-7-yl)phenyl)cyclobutanamine], for which the IC50 at AKT2 was 1000 to 10000 nM; at AKT3, greater than 10000 nM; at AKT1, 100 to 1000 nM.

As for `CCCN1C(=O)COc2nc(-c3ccc(C4(N)CCC4)cc3)c(-c3ccccc3)cc21` [Example 105, 6-(4-(1-aminocyclobutyl)phenyl)-7-phenyl-1-propyl-1H-pyrido[2,3-b][1,4]oxazin-2(3H)-one], the IC50 is no more than 100 nM at AKT2, 1000 to 10000 nM on AKT3 and no more than 100 nM on AKT1.

With `COCCN1C(=O)COc2nc(-c3ccc(C4(N)CCC4)cc3)c(-c3ccccc3)cc21` [Example 51, 6-(4-(1-aminocyclobutyl)phenyl)-1-(2-methoxyethyl)-7-phenyl-1H-pyrido[2,3-b][1,4]oxazin-2(3H)-one], the IC50 at AKT2 lay within 100 to 1000 nM; at AKT3 it was 1000 to 10000 nM; at AKT1, 100 to 1000 nM.

Take `CC(C)c1nnc2n1-c1cc(-c3ccccc3)c(-c3ccc(C4(N)CCC4)cc3)nc1OC2` [Example 112, 1-(4-(1-isopropyl-8-phenyl-4H-pyrido[2,3-b][1,2,4]triazolo[4,3-d][1,4]oxazin-7-yl)phenyl)cyclobutanamine]: the values for the IC50 on AKT2, on AKT3 and on AKT1 were 1000 to 10000 nM, 1000 to 10000 nM and 100 to 1000 nM, respectively.

For the compound `NC1(c2ccc(-c3nc4c(cc3-c3ccccc3)-n3c(Br)nnc3CO4)cc2)CCC1` [Example 92, 1-(4-(1-bromo-8-phenyl-4H-pyrido[2,3-b][1,2,4]triazolo[4,3-d][1,4]oxazin-7-yl)phenyl)cyclobutanamine], the IC50 at AKT2 lay within 1000 to 10000 nM; on AKT3, 1000 to 10000 nM; on AKT1 it was 100 to 1000 nM.

Turning to `CN(C)CCN1C(=O)COc2nc(-c3ccc(C4(N)CCC4)cc3)c(-c3ccccc3)cc21` [Example 34, 6-(4-(1-aminocyclobutyl)phenyl)-1-(2-(dimethylamino)ethyl)-7-phenyl-1H-pyrido[2,3-b][1,4]oxazin-2(3H)-one], the IC50 at AKT2 is 1000 to 10000 nM; at AKT3, greater than 10000 nM; at AKT1, 1000 to 10000 nM.

Regarding `NCc1ccc(-c2nc3c(cc2-c2ccccc2)N(CC(F)(F)F)C(=O)CO3)cc1` [Example 146, 6-(4-(Aminomethyl)phenyl)-7-phenyl-1-(2,2,2-trifluoroethyl)-1H-pyrido[2,3-b][1,4]oxazin-2(3H)-one], the IC50 was 100 to 1000 nM on AKT2, greater than 10000 nM at AKT3 and 1000 to 10000 nM at AKT1.

On to `N#CCN1CCc2nc(-c3ccc(C4(N)CCC4)cc3)c(-c3ccccc3)cc2C1=O` [Example 24, 2-(2-(4-(1-aminocyclobutyl)phenyl)-5-oxo-3-phenyl-7,8-dihydro-1,6-naphthyridin-6(5H)-yl)acetonitrile], for which the IC50 at AKT2 was 100 to 1000 nM; on AKT3 it was greater than 10000 nM; on AKT1 it was 1000 to 10000 nM.

For the compound `CC(=O)CN1C(=O)COc2nc(-c3ccc(C4(N)CCC4)cc3)c(-c3ccccc3)cc21` [Example 36, 6-(4-(1-aminocyclobutyl)phenyl)-1-(2-oxopropyl)-7-phenyl-1H-pyrido[2,3-b][1,4]oxazin-2(3H)-one], the IC50 fell in the range of 1000 to 10000 nM at AKT2, 1000 to 10000 nM at AKT3 and 100 to 1000 nM at AKT1.

As for `NC1(c2ccc(-c3nc4c(cc3-c3ccccc3)NC(=O)CO4)cc2)CCC1` [Example 30, 6-(4-(1-aminocyclobutyl)phenyl)-7-phenyl-1H-pyrido[2,3-b][1,4]oxazin-2(3H)-one], the IC50 at AKT2, at AKT3 and at AKT1 was 1000 to 10000 nM in each case.

Take `NC1(c2ccc(-c3nc4c(cc3-c3ccccc3)NC(=O)C(CCO)O4)cc2)CCC1` (stereo not drawn) [Example 71, 6-(4-(1-aminocyclobutyl)phenyl)-3-(2-hydroxyethyl)-7-phenyl-1H-pyrido[2,3-b][1,4]oxazin-2(3H)-one]: the figures for the IC50 on AKT2, at AKT3 and on AKT1 were 1000 to 10000 nM, 1000 to 10000 nM and 100 to 1000 nM, respectively.

What is called IC50 is the point on the concentration scale where inhibition reaches its midpoint.
